Measured values reported in ChEMBL document CHEMBL1201862, “PubChem BioAssay data set” (2004).
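Step 1: Grow cells in 96-well plates. Step 2: Expose to compound for 48 hours at 5 concentrations. Step 3: Interpolate endpoints linearly; if unreached, use highest concentration. GI50 = concentration required for 50% inhibition of growth.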 Calls of active or inactive are those of the source. Cut-off read from the data, not from the text of the source: active = GI50 up to about 1.1 µM and inactive = higher.

What was measured:
Experiment in all cases: NCI-60 cell line screen, 48 h
NCI-H226 = tested on: NCI-H226
SK-MEL-2 = tested on: SK-MEL-2
HCT-116 = tested on: HCT-116
SNB-75 = tested on: SNB-75
CCRF-CEM = tested on: CCRF-CEM
HT-29 = tested on: HT-29
M14 = tested on: M14
OVCAR-8 = tested on: OVCAR-8
A498 = tested on: A498
EKVX = tested on: EKVX
A549 = tested on: A549
HCC 2998 = tested on: HCC 2998
RPMI-8226 = tested on: RPMI-8226
OVCAR-3 = tested on: OVCAR-3
NCI-H23 = tested on: NCI-H23
SR = tested on: SR
SF-295 = tested on: SF-295

Measured: GI50

Cc1cc(N(CCC#N)CCC#N)ccc1/C=C1\N=C(c2cc([N+](=O)[O-])ccc2Cl)N(NC(=O)c2ccc(/N=C\c3ccc(N(CCC#N)S(C)(=O)=O)cc3C)cc2)C1=O
inactive: NCI-H226 > 100 µM | SK-MEL-2 > 100 µM | HCT-116 > 100 µM | SNB-75 > 100 µM | CCRF-CEM 76.4 µM | HT-29 54.5 µM | M14 37.9 µM | OVCAR-8 > 100 µM | A498 > 100 µM | EKVX > 100 µM | A549 > 100 µM | HCC 2998 > 100 µM | RPMI-8226 > 100 µM | OVCAR-3 > 100 µM | NCI-H23 > 100 µM

NCCCC(N/C=C1/N=C(c2ccccc2)OC1=O)C(=O)O (stereo not drawn)
inactive: NCI-H226 > 100 µM | SK-MEL-2 > 100 µM | HCT-116 40.3 µM | SNB-75 > 100 µM | CCRF-CEM 37.8 µM | HT-29 > 100 µM | M14 > 100 µM | SR 87.3 µM | OVCAR-8 > 100 µM | SF-295 > 100 µM | A498 > 100 µM | EKVX > 100 µM | A549 > 100 µM | HCC 2998 > 100 µM | RPMI-8226 45.5 µM | OVCAR-3 > 100 µM | NCI-H23 > 100 µM

COC(=O)c1cc2c3c(ccc2[nH]1)N(C(=O)c1cc2c4c(ccc2[nH]1)N(C(=O)c1cc2c5c(ccc2[nH]1)N(C(N)=O)CC5)CC4)CC3
inactive: NCI-H226 1.71 µM | SK-MEL-2 3.18 µM | HCT-116 2.24 µM | SNB-75 2.11 µM | CCRF-CEM 4.58 µM | HT-29 6.58 µM | M14 1.87 µM | SR 5.58 µM | SF-295 3.12 µM | A498 1.29 µM | EKVX 2.17 µM | A549 3 µM | HCC 2998 5.45 µM | RPMI-8226 7.89 µM | OVCAR-3 3.9 µM | NCI-H23 2.94 µM

COc1cc(C2(C)SCCCS2)cc(OC)c1OC
inactive: NCI-H226 > 100 µM | SK-MEL-2 > 100 µM | HCT-116 > 100 µM | SNB-75 > 100 µM | CCRF-CEM > 100 µM | HT-29 > 100 µM | M14 > 100 µM | SR > 100 µM | OVCAR-8 > 100 µM | SF-295 > 100 µM | A498 > 100 µM | EKVX > 100 µM | A549 > 100 µM | HCC 2998 > 100 µM | RPMI-8226 > 100 µM | OVCAR-3 > 100 µM | NCI-H23 > 100 µM

Cc1ccc(/C=C(\NC(=O)c2ccccc2)c2nc3ccccc3[nH]2)cc1
inactive: SK-MEL-2 31.6 µM | HCT-116 37.2 µM | HT-29 37.5 µM | M14 50 µM | SR 37.4 µM | OVCAR-8 43.8 µM | SF-295 36.6 µM | A498 38 µM | EKVX 74.5 µM | A549 42.7 µM | HCC 2998 49.5 µM | OVCAR-3 46.9 µM | NCI-H23 59.6 µM

CCOC(=O)C(=O)Nc1ccc([N+](=O)[O-])cc1C#N
inactive: NCI-H226 > 100 µM | SK-MEL-2 > 100 µM | HCT-116 > 100 µM | CCRF-CEM > 100 µM | HT-29 > 100 µM | M14 > 100 µM | SR > 100 µM | OVCAR-8 > 100 µM | SF-295 > 100 µM | EKVX > 100 µM | A549 > 100 µM | HCC 2998 > 100 µM | RPMI-8226 > 100 µM | OVCAR-3 > 100 µM | NCI-H23 > 100 µM

COC(=O)C1CC(C(=O)OC)c2nc3cc(C)ccc3nc21 (stereo not drawn)
inactive: NCI-H226 > 100 µM | SK-MEL-2 > 100 µM | SNB-75 > 100 µM | CCRF-CEM > 100 µM | HT-29 62.7 µM | M14 > 100 µM | OVCAR-8 > 100 µM | SF-295 > 100 µM | A498 > 100 µM | EKVX > 100 µM | A549 > 100 µM | HCC 2998 > 100 µM | RPMI-8226 > 100 µM | OVCAR-3 > 100 µM | NCI-H23 > 100 µM

ClC(/N=N/c1ccccc1)=N/Nc1ccccc1
inactive: NCI-H226 > 100 µM | SK-MEL-2 > 100 µM | HCT-116 > 100 µM | CCRF-CEM > 100 µM | HT-29 > 100 µM | SR > 100 µM | OVCAR-8 > 100 µM | SF-295 53.8 µM | A498 > 100 µM | EKVX 96.8 µM | A549 > 100 µM | HCC 2998 41.8 µM | NCI-H23 > 100 µM

COC(=O)C(C(=O)C(=O)Nc1ccc(C)cc1C)c1nc2ccc([N+](=O)[O-])cc2nc1O (stereo not drawn)
inactive: NCI-H226 > 100 µM | SK-MEL-2 > 100 µM | HCT-116 > 100 µM | SNB-75 > 100 µM | CCRF-CEM 71.4 µM | HT-29 > 100 µM | M14 > 100 µM | SR > 100 µM | OVCAR-8 > 100 µM | SF-295 > 100 µM | A498 > 100 µM | EKVX > 100 µM | A549 > 100 µM | RPMI-8226 33.8 µM | NCI-H23 > 100 µM

CCCOc1ccc(/C=C/c2cc(OC)c(OC)c(OC)c2)cc1
active: NCI-H226 0.373 µM | SK-MEL-2 0.822 µM | HCT-116 0.552 µM | SNB-75 0.266 µM | CCRF-CEM 0.324 µM | HT-29 0.272 µM | M14 0.252 µM | SR 0.548 µM | OVCAR-8 0.525 µM | SF-295 0.185 µM | A498 1.08 µM | A549 0.452 µM | RPMI-8226 0.456 µM | OVCAR-3 0.146 µM | NCI-H23 0.23 µM
inactive: EKVX 6.53 µM | HCC 2998 3.02 µM

O=C(c1ccco1)N(C(=S)N1CCN(c2ccccc2)CC1)c1ccccc1
inactive: NCI-H226 25.6 µM | SK-MEL-2 > 100 µM | HCT-116 > 100 µM | SNB-75 > 100 µM | CCRF-CEM > 100 µM | HT-29 > 100 µM | M14 > 100 µM | SR 72.4 µM | OVCAR-8 > 100 µM | SF-295 > 100 µM | A549 > 100 µM | RPMI-8226 > 100 µM | OVCAR-3 > 100 µM | NCI-H23 > 100 µM

Cc1ccc2[nH]c3c4c5ccccc5nc-4c[nH]c3c2c1
inactive: NCI-H226 16.1 µM | SK-MEL-2 18.9 µM | HCT-116 17.1 µM | SNB-75 14.9 µM | CCRF-CEM 15.3 µM | HT-29 11.6 µM | M14 18.2 µM | OVCAR-8 18.6 µM | SF-295 17.2 µM | EKVX 15.2 µM | A549 17.2 µM | HCC 2998 16.1 µM | RPMI-8226 18.1 µM | OVCAR-3 10 µM | NCI-H23 10 µM

COC(=O)C1=Cc2cc(OC)c(OC)cc2[C@H](c2ccc(OC)c(OC)c2)C1C(=O)OC (stereo partly drawn)
inactive: NCI-H226 > 100 µM | HCT-116 > 100 µM | SNB-75 > 100 µM | CCRF-CEM > 100 µM | HT-29 75.9 µM | M14 > 100 µM | SR > 100 µM | OVCAR-8 > 100 µM | SF-295 > 100 µM | A498 > 100 µM | EKVX > 100 µM | A549 > 100 µM | HCC 2998 > 100 µM | RPMI-8226 > 100 µM | OVCAR-3 > 100 µM | NCI-H23 > 100 µM

CN1CC[C@]2(C)c3cc(O)ccc3CC3CCCC1C32C (stereo partly drawn)
inactive: NCI-H226 > 100 µM | HCT-116 > 100 µM | SNB-75 92 µM | CCRF-CEM > 100 µM | HT-29 > 100 µM | M14 > 100 µM | SR > 100 µM | OVCAR-8 > 100 µM | SF-295 > 100 µM | A498 > 100 µM | EKVX > 100 µM | A549 > 100 µM | HCC 2998 47.2 µM | RPMI-8226 > 100 µM | OVCAR-3 > 100 µM | NCI-H23 > 100 µM

Cc1nc(N)nc(N)c1CCCCc1ccc(N)cc1
active: HCT-116 0.569 µM | HT-29 0.729 µM | A549 0.668 µM
inactive: NCI-H226 25.8 µM | SK-MEL-2 9.06 µM | SNB-75 11.9 µM | CCRF-CEM 3.01 µM | M14 2.58 µM | SR 1.28 µM | OVCAR-8 3.18 µM | SF-295 1.94 µM | EKVX 9.23 µM | HCC 2998 3.25 µM | RPMI-8226 5.81 µM | OVCAR-3 5.53 µM | NCI-H23 4.37 µM

CC(=O)OCC1OC(n2c(=O)[nH]c(=O)c3nn[nH]c32)C(OC(C)=O)C(OC(C)=O)C1OC(C)=O (stereo not drawn)
inactive: SK-MEL-2 > 100 µM | HCT-116 > 100 µM | SNB-75 2.63 µM | CCRF-CEM > 100 µM | HT-29 > 100 µM | M14 > 100 µM | SR > 100 µM | OVCAR-8 > 100 µM | SF-295 > 100 µM | A498 > 100 µM | EKVX > 100 µM | A549 > 100 µM | HCC 2998 > 100 µM | RPMI-8226 > 100 µM | NCI-H23 > 100 µM

CNC(=O)NCNC(=O)NC
inactive: SK-MEL-2 > 100 µM | HCT-116 > 100 µM | SNB-75 > 100 µM | CCRF-CEM > 100 µM | HT-29 > 100 µM | M14 > 100 µM | OVCAR-8 > 100 µM | SF-295 > 100 µM | A498 > 100 µM | EKVX > 100 µM | A549 > 100 µM | HCC 2998 > 100 µM | RPMI-8226 > 100 µM | OVCAR-3 > 100 µM | NCI-H23 > 100 µM

CCO[C@]12C[C@H](OC)[C@@]3(O)CC(C1[C@H]3OCc1ccccc1)C13C4C2[C@H](OC)C1[C@](COC)(CN4CC)[C@H](O)C[C@@H]3OC (stereo partly drawn)
inactive: NCI-H226 > 100 µM | HCT-116 > 100 µM | SNB-75 > 100 µM | CCRF-CEM > 100 µM | HT-29 > 100 µM | M14 > 100 µM | SR 78.5 µM | OVCAR-8 > 100 µM | EKVX > 100 µM | A549 > 100 µM | HCC 2998 > 100 µM | RPMI-8226 > 100 µM | NCI-H23 > 100 µM
